Measurements taken from ChEMBL document CHEMBL1135532, “Synthesis of potent leukotriene A(4) hydrolase inhibitors. Identification of 3-[methyl[3-[4-(phenylmethyl)phenoxy]propyl]amino]propanoic acid” (J Med Chem, 2002).

Key:
[1] = species: Mus musculus; assay: Effective dose measured for mouse ex vivo whole blood LTB-4 production; Range is from 3-10.; type: functional
[2] = target: T1, Leukotriene A-4 hydrolase (Homo sapiens, UniProt P09960); assay: Inhibition of human whole blood LTB-4 production (Leukotriene B-4).; type: functional
T1 sequence (P09960 whole entry): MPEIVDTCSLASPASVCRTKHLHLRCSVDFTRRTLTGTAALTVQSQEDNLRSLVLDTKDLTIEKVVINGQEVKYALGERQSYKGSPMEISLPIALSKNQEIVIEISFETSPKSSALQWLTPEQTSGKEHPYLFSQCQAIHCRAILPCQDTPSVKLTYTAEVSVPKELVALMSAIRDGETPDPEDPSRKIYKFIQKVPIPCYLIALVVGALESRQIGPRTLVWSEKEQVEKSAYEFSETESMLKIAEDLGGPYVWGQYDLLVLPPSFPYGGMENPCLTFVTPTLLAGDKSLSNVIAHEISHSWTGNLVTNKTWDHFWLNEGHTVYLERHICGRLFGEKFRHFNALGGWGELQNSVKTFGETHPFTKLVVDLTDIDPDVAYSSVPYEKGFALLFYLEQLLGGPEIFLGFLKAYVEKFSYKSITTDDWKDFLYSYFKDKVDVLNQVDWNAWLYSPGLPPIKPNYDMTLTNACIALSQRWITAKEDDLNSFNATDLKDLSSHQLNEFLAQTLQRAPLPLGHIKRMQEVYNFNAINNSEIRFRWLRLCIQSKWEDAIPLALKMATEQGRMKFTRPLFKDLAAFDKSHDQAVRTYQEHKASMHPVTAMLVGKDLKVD

[3] = target: T1, Leukotriene A-4 hydrolase; assay: Inhibition of human leukotriene A4 hydrolase (LTA-4).
[4] = system: Mus musculus; assay: Percentage inhibition of mouse ex vivo whole blood LTB-4 production (Leukotriene B-4) at a concentration of 10 mg/kg.; type: functional
[5] = species: Mus musculus; assay: Effective dose measured for mouse ex vivo whole blood LTB-4 production (Leukotriene B-4); type: functional
[6] = species: Mus musculus; assay: Effective dose measured for mouse ex vivo whole blood LTB-4 production; Range is from 1-3; type: functional
[7] = species: Mus musculus; assay: Effective dose measured for mouse ex vivo whole blood LTB-4 production; Range is from 1-3.; type: functional

Compound | IC50 [2] [nM] | IC50 [3] [nM] | ED90 [5] [mg/kg] | also measured
CCOC(=O)CCN(C)CCCOc1ccc(Cc2ccccc2)cc1 | 110 |  |  | ED90 [1]: 10 mg/kg
COC(=O)CCN(C)CCCOc1ccc(Cc2cccs2)cc1 | 95 |  |  | ED90 [1]: 10 mg/kg
CCOC(=O)CNCCOc1ccc(Cc2ccccc2)cc1 | > 30000 | 2500 |  | 
c1coc(-c2ccc(Oc3ccc(OCCN4CCCC4)cc3)cc2)n1 |  |  |  | inhibition in vivo at 10 mg/kg [4]: 93%
CN(CCCOc1ccc(Oc2ccccc2)cc1)CCC(=O)O | 230 | 19 | 3 | 
CCOC(=O)CCN(C)CCCCOc1ccc(Cc2ccccc2)cc1 | 520 | > 10000 |  | 
CCOC(=O)CCNCCCOc1ccc(Cc2ccccc2)cc1 | 450 | 84 |  | 
CCOC(=O)CNCCCCCOc1ccc(Cc2ccccc2)cc1 | 420 |  | 10 | 
CN(CCCCOc1ccc(Cc2ccccc2)cc1)CC(=O)O | 450 | 110 |  | 
CCOC(=O)CCCCNCCOc1ccc(Cc2ccccc2)cc1 | 2500 | 10700 |  | 
O=C(O)CNCCCCOc1ccc(Cc2ccccc2)cc1 | 230 | 1.3 | ≥ 10 | 
CN(CCCOc1ccc(Cc2ccccc2)cc1)CCC(N)=O | 110 | 7 |  | inhibition in vivo at 10 mg/kg [4]: 98%
CN(CCCOc1ccc(Cc2ccc(F)cc2)cc1)CCC(=O)O | 190 |  | ≥ 10 | 
CN(CCCOc1ccc(Cc2ccccc2)cc1)CCn1cnnn1 | 560 | 1650 |  | 
CCOC(=O)CCCNCCOc1ccc(Cc2ccccc2)cc1 | 2500 | 3700 |  | 
c1ccc(-c2ccc(OCCN3CCCC3)cc2)cc1 |  |  |  | inhibition in vivo at 10 mg/kg [4]: 9%
COC(=O)CCN(C)CCCOc1ccc(Cc2cccnc2)cc1 |  |  |  | inhibition in vivo at 10 mg/kg [4]: 58%
O=C(O)CCNCCCOc1ccc(Cc2ccccc2)cc1 | 280 |  | ≥ 10 | 
COC(=O)CCNCCOc1ccc(Cc2ccccc2)cc1 | 590 |  |  | 

Compound | IC50 [2] [nM] | IC50 [3] [nM] | ED90 [5] [mg/kg] | also measured
CCOC(=O)CN(C)CCCCOc1ccc(Cc2ccccc2)cc1 | 3300 | 6600 |  | 
CN(CCCOc1ccc(Oc2ccc(F)cc2)cc1)CCC(=O)O | 210 | 160 | 3 | 
CN(CCCOc1ccc(Cc2cccs2)cc1)CCC(=O)O |  |  |  | ED90 [1]: 10 mg/kg
CN(CCCOc1ccc(Oc2ccc(-c3ccccc3)cc2)cc1)CCC(=O)O | 190 | < 0.5 | 10 | 
CN(CCCOc1ccc(Cc2ccccc2)cc1)CCC(=O)NS(C)(=O)=O | 70 |  | ≤ 1 | 
CCOC(=O)CCNCCCCOc1ccc(Cc2ccccc2)cc1 | 76 |  | 3 | 
CN(CCCOc1ccc(Cc2ccccc2)cc1)CCC(=O)NS(=O)(=O)c1ccccc1 | 75 |  | 3 | 
CCOC(=O)CNCCCOc1ccc(Cc2ccccc2)cc1 | 1100 |  |  | inhibition in vivo at 10 mg/kg [4]: 22%
CN(CCCOc1ccc(Cc2ccccc2)cc1)CCS(=O)(=O)O | 5200 | 220 |  | 
O=C(O)CCNCCCCOc1ccc(Cc2ccccc2)cc1 | 490 |  |  | inhibition in vivo at 10 mg/kg [4]: 70%
CN(CCCOc1ccc(Cc2ccsc2)cc1)CCC(=O)O |  |  |  | ED90 [1]: 10 mg/kg
COC(=O)CCCN(C)CCOc1ccc(Cc2ccccc2)cc1 | 460 | 450 | ≥ 10 | 
COC(=O)CCN(C)CCCOc1ccc(Cc2ccsc2)cc1 | 250 | 870 |  | ED90 [6]: 3 mg/kg
CN(CCCOc1ccc(Oc2ccc(-c3nccs3)cc2)cc1)CCC(=O)O | 72 |  |  | inhibition in vivo at 10 mg/kg [4]: 87%
CCOC(=O)CNCCCCOc1ccc(Cc2ccccc2)cc1 | 350 |  | ≥ 10 | 
CN(CCCOc1ccc(Oc2ccc(-c3ncco3)cc2)cc1)CCC(=O)O | 190 |  | ≥ 10 | 
CN(CCCOc1ccc(Cc2ccccc2)cc1)CCS(N)(=O)=O | 740 | 4 |  | inhibition in vivo at 10 mg/kg [4]: 84%
CN(CCCOc1ccc(Cc2ccccc2)cc1)CCC(=O)O.Cl |  |  |  | ED90 [7]: 3 mg/kg
